Results as given in patent US11473089B2, “Aptamer for ADAMTS5 and use for aptamer for ADAMTS5” (RIBOMIC INC., priority 2017, dated 2022).

B1: 1 (nucleic acid)
chain: GGGUACGACCGUCGUACGAUUGGGGCCUCCACAGCUGCUCAGCUUGGACUAAACCAAUAAGAGACUAACGCCUAGCGUAC
modifications: 2'-fluoro at CU, RNA at AG, backbone not given here
B2: 2 (nucleic acid)
chain: GGGUACGACCGUCGUACGAUUGGGCCUCCACAGCUGCUCAGCUUGGACUAAACCAAUAAGAGACUAACGCCUAGCGUAC
modifications: 2'-fluoro at CU, RNA at AG, backbone not given here

Molecular target: T1, ADAMTS5 (Homo sapiens, UniProt Q9UNA0)
T1 construct: purchased R&D systems
T1 sequence (Q9UNA0 262-930): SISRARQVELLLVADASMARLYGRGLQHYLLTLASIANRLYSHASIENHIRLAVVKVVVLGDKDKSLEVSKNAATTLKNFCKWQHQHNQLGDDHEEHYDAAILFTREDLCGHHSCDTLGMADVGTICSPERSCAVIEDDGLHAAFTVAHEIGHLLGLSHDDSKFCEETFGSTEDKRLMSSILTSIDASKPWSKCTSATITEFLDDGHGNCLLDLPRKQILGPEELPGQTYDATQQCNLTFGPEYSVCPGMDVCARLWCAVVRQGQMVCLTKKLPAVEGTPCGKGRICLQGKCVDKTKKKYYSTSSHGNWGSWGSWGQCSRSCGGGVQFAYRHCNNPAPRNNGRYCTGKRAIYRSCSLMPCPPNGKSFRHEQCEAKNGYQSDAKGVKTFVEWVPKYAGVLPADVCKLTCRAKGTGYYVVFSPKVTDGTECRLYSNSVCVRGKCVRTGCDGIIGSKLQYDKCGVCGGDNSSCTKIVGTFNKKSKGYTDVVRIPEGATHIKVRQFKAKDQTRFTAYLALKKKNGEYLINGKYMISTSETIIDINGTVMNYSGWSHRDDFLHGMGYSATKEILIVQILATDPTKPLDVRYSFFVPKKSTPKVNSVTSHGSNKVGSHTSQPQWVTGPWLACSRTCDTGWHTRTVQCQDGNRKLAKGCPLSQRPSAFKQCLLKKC
Experiment: binding activity to ADAMTS5 by surface plasmon resonance (Biacore T100)
Settings: Table 1; 0.1 μM ADAMTS5 analyte, aptamer immobilized on SA chip
Protocol: The binding activity of aptamers having the nucleotide sequences shown in SEQ ID NOs: 1 and 2 to ADAMTS5 was evaluated by the surface plasmon resonance method. Biacore T100 manufactured by GE Healthcare was used for the measurement. The SA chip was used as the sensor chip, which had streptavidin immobilized thereon. About 800 RU of a 16-nucleotide Poly dT with biotin at the 5′-terminal was bound on the chip. […] ADAMTS5 for analyte was prepared at 0.1 μM, and injected at a flow rate of 30 μL/min for 60 sec. As the running buffer, solution C was used. The solution C is a mixed solution of 300 mM sodium chloride, 5.4 mM potassium chloride, 1.8 mM calcium chloride, 0.8 mM magnesium chloride, 20 mM tris (pH 7.6), and 0.05% Tween20.
SEQ ID NO: 2 has a sequence with one base deletion from the continuous 4 G bases in the consensus sequence, and it was shown from the measurement results of the binding activity that the continuous 4 G bases in the consensus sequence are important for the activity of aptamers. Sensorgram showing the binding of an aptamer having the nucleotide sequence shown in SEQ ID NO: 1 to ADAMTS5 is presented in FIG. 2. In Table 1, “++” indicates those with the proportion of ADAMTS5 binding amount (RU value) to the amount of aptamer immobilized on the SA chip (RU value) of not less than 40%, “+” indicates those with the proportion of not less than 10% and less than 40%, and “−” indicates those with the proportion of less than 10%.
The binding activity and enzyme inhibitory activity of aptamers having nucleotide sequences shown in SEQ ID NOs: 16-25 to ADAMTS5 were measured. The binding activity was evaluated by the surface plasmon resonance method. For the measurement, a method similar to that in Example 1 was used. The enzyme inhibitory activity was measured by a method similar to that in Example 1. […] The negative control nucleic acid refers to the nucleic acid pool used in the first round of the SELEX method. The “++” indicates those with the proportion of ADAMTS5 binding amount (RU value) to the amount of aptamer immobilized on the SA chip (RU value) of not less than 40%, and “+” indicates those with the proportion of less than 40%. […] “n.d.” means not determined.
The binding activity of the nucleic acids shown in SEQ ID NOs: 30-45 to ADAMTS5 was measured. The binding activity was evaluated by the surface plasmon resonance method. In the Table, “++” indicates those with the proportion of ADAMTS5 binding amount (RU value) to the amount of aptamer immobilized on the SA chip (RU value) of not less than 40%, “+” indicates those with the proportion of not less than 10% and less than 40%, and “−” indicates those with the proportion of less than 10%.

Molecule | binding activity by Biacore
B1 | ++ (proportion of ADAMTS5 binding amount (RU value) to the amount of aptamer immobilized on the SA chip (RU value) of not less than 40%)
B2 | − (proportion of less than 10%)

Same assay, conditions: Table 10

Molecule | binding activity
37 (GGGUAUUGGGGCCUCCACAGUAAAUUCUUGGACUAAACCAACUCGA; aptamer; 2'-fluoro at CU, RNA at AG, backbone not given here) [compound 37] | ++ (proportion of ADAMTS5 binding amount (RU value) to the amount of aptamer immobilized on the SA chip (RU value) of not less than 40%)
45 (GGGUAUUGGGGCCUCCACAGAAAAGUCUUGGACUAAACCAACUCGA; aptamer; 2'-fluoro at CU, RNA at AG, backbone not given here) [compound 45] | ++ (proportion of ADAMTS5 binding amount (RU value) to the amount of aptamer immobilized on the SA chip (RU value) of not less than 40%)
30 (GGGUAUUGGGGCCUCCACAAUAGAUAAAUGGACUAAACCAACUCGA; 2'-fluoro at CU, RNA at AG, backbone not given here) [compound 30] | ++ (proportion of ADAMTS5 binding amount (RU value) to the amount of aptamer immobilized on the SA chip (RU value) of not less than 40%)
44 (GGGUAUUGGGGCCUCCACAGAACUUUCUUGGACUAAACCAACUCGA; aptamer; 2'-fluoro at CU, RNA at AG, backbone not given here) [compound 44] | ++ (proportion of ADAMTS5 binding amount (RU value) to the amount of aptamer immobilized on the SA chip (RU value) of not less than 40%)
32 (GGGUAUUGGGGCCUCCACAGAAAAAUCUUGGACUAAACCAAUCUCGA; aptamer; 2'-fluoro at CU, RNA at AG, backbone not given here) [compound 32] | ++ (proportion of ADAMTS5 binding amount (RU value) to the amount of aptamer immobilized on the SA chip (RU value) of not less than 40%)
41 (GGGUAUUGGGGCCUCCACAUGGAUACAUUGGACUAAACCAACUCGA; aptamer; 2'-fluoro at CU, RNA at AG, backbone not given here) [compound 41] | ++ (proportion of ADAMTS5 binding amount (RU value) to the amount of aptamer immobilized on the SA chip (RU value) of not less than 40%)
33 (GGGUAUUGGGGCCUCCACAGCCGAGGCUUGGACUAAACCAAUCUCGA; aptamer; 2'-fluoro at CU, RNA at AG, backbone not given here) [compound 33] | ++ (proportion of ADAMTS5 binding amount (RU value) to the amount of aptamer immobilized on the SA chip (RU value) of not less than 40%)
42 (GGGUAUUGGGGCCUCCACAGAUAAUUCUUGGACUAAACCAACUCGA; aptamer; 2'-fluoro at CU, RNA at AG, backbone not given here) [compound 42] | ++ (proportion of ADAMTS5 binding amount (RU value) to the amount of aptamer immobilized on the SA chip (RU value) of not less than 40%)
31 (GGGUAUUGGGGCCUCCACAGUUGAAGCUUGGACUAAACCAAUCUCGA; aptamer; 2'-fluoro at CU, RNA at AG, backbone not given here) [compound 31] | ++ (proportion of ADAMTS5 binding amount (RU value) to the amount of aptamer immobilized on the SA chip (RU value) of not less than 40%)
36 (GGGUAUUGGGGCCUCCACAGUUUAAACUUGGACUAAACCAACUCGA; aptamer; 2'-fluoro at CU, RNA at AG, backbone not given here) [compound 36] | ++ (proportion of ADAMTS5 binding amount (RU value) to the amount of aptamer immobilized on the SA chip (RU value) of not less than 40%)
39 (GGGUAUUGGGGCCUCCACGUAACUAAACUGGACUAAACCAACUCGA; aptamer; 2'-fluoro at CU, RNA at AG, backbone not given here) [compound 39] | ++ (proportion of ADAMTS5 binding amount (RU value) to the amount of aptamer immobilized on the SA chip (RU value) of not less than 40%)
34 (GGGUAUUGGGGCCUCCACAGAAAAAACUUGGACUAAACCAACUCGA; aptamer; 2'-fluoro at CU, RNA at AG, backbone not given here) [compound 34] | ++ (proportion of ADAMTS5 binding amount (RU value) to the amount of aptamer immobilized on the SA chip (RU value) of not less than 40%)
35 (GGGUAUUGGGGCCUCCACAGUAAGCACUUGGACUAAACCAGCUCGA; aptamer; 2'-fluoro at CU, RNA at AG, backbone not given here) [compound 35] | ++ (proportion of ADAMTS5 binding amount (RU value) to the amount of aptamer immobilized on the SA chip (RU value) of not less than 40%)

Same assay, conditions: surface plasmon resonance

Molecule | binding to ADAMTS5 (in words)
B1 | binds to ADAMTS5
B2 | did not bind to ADAMTS5

Molecular target: T1, ADAMTS5
Experiment: ADAMTS5 enzyme inhibition, aggrecan G1-IGD-G2 cleavage, SDS-PAGE detection (evaluation method 1)
Format: biochemical
Settings: Table 2; mean of four measurements; 5 nM ADAMTS5, 50 μg/mL substrate; read-out: IC50, inhibitory activity against ADAMTS5
Protocol: Whether an aptamer having the nucleotide sequence shown in SEQ ID NO: 1 inhibits the enzyme activity of ADAMTS5 was evaluated by the following method. As a substrate of ADAMTS5, the G1-IGD-G2 domain of aggrecan (manufactured by R&D systems) was used. ADAMTS5 specifically cleaves in between the 392nd glutamic acid and the 393rd alanine in the G1-IGD-G2 domain and produces two fragments. These fragments have faster electrophoretic mobility than uncleaved G1-IGD-G2. Thus, the enzyme activity of ADAMTS5 can be measured by quantifying the band intensity of G1-IGD-G2 by SDS-PAGE electrophoresis. The assay was performed in a solution A buffer with a reaction mixture volume of 10 μL. First, a mixture (10 μL) of a nucleic acid and ADAMTS5 was prepared and incubated at 25° C. for 15 min. To a substrate solution (5 μL) diluted with solution A was added a mixture (5 μL) of the nucleic acid and ADAMTS5 to start the enzyme reaction. The final concentration of ADAMTS5 in the reaction solution was 5 nM, and the final substrate concentration was 50 μg/mL. The reaction solution was incubated at 37° C. for 2 hr, 2 μL of solution D was added, and the mixture was heated at 95° C. for 2 min to stop the enzyme reaction of ADAMTS5. Solution D contains 0.25 M tris (pH 6.8), 10% SDS, 50% glycerol, 0.25% bromo phenolblue, and 20% 2-mercaptoethanol. The heat-treated reaction solution was electrophoresed by 7.5% SDS-PAGE and stained with SYPRO Orange (manufactured by Sigma-Aldrich). The staining was performed according to the manual of Sigma-Aldrich and detected using STORM840 manufactured by GE Healthcare. For analytical curves, uncleaved substrates 1000 ng, 400 ng, 160 ng, 64 ng, 25.6 ng, 10.24 ng, and 4.1 ng were electrophoresed, and staining and detection were performed in the same manner. The amount of uncleaved substrate in each reaction solution was quantified from the band intensity and the standard curve. The substrate cleavage efficiency of ADAMTS5 under these reaction conditions was 80-100%. The inhibition rate of the test substance was calculated using the following equation. inhibition rate (%)=(Sapt−SE)/(S0−SE)×100 wherein Sapt is the amount of an uncleaved substrate with the addition of a test substance, SE is the residual amount of an uncleaved substrate with the addition of ADAMTS5, and S0 is the residual amount of an uncleaved substrate without the addition of ADAMTS5.
The concentration of an inhibitor necessary for inhibiting 50% of the enzyme activity (IC50) was determined. IC50 is a mean of four measurements.

Molecule | IC50 [µM]
B1 | 0.0168 ± 0.0028
